Literature values as cited in patent US20020111657A1, “Method of controlling body temperature while reducing shivering” (priority 2001, published 2002).

Test system: shivering threshold
Conditions: patients at normal temperature warmed until sweating then cooled until shivering; Talke, et al., Anesthesiology 87(4):835-841, 1997

SMILES | effect on shivering threshold
Clc1cccc(Cl)c1N=C1NCCN1 [clonidine] | able to lower the shivering threshold
Cc1cccc([C@H](C)c2cnc[nH]2)c1C [dexmedetomidine] | able to lower the shivering threshold
